Patent US8329904B2, “Azacyclic derivatives” (Hoffmann-La Roche Inc., priority 2009, dated 2012)

Biological target: T1, human HSL (Homo sapiens, UniProt Q05469)
T1 construct: overlapping PCR to generate a full length human HSL ORF with a 3′-His6 tag; His6 (C); made in house; host or cells: High 5 insect cells (baculovirus, pFast-BAC)
T1 sequence (Q05469 1-1076): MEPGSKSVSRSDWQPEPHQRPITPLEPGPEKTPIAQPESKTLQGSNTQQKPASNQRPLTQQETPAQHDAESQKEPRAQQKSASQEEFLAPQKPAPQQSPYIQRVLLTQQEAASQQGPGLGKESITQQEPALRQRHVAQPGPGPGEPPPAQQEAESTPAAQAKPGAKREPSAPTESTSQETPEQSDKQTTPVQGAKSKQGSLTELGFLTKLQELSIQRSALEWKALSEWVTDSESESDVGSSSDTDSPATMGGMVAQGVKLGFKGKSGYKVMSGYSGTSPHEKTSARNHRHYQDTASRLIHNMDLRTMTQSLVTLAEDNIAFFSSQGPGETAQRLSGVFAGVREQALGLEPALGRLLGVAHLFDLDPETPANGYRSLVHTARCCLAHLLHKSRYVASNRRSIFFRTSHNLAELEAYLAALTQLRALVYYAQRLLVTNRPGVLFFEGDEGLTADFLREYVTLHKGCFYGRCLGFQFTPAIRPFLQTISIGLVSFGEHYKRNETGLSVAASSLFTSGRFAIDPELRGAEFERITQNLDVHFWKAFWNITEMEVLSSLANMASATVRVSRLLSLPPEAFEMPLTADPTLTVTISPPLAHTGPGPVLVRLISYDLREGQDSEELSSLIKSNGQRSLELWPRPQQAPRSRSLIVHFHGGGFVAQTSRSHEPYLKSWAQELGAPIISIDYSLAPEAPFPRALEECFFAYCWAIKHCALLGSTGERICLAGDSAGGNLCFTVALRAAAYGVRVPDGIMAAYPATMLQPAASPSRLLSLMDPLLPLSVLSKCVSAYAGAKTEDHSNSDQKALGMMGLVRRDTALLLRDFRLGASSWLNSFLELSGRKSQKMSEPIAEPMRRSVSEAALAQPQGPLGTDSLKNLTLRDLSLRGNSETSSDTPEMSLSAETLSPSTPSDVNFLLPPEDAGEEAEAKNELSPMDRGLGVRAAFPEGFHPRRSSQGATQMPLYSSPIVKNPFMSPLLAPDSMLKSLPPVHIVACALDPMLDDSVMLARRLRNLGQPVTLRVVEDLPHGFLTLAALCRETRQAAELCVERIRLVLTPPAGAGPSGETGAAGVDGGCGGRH
Test: Human Hormone-Sensitive Lipase (HSL) Enzyme Inhibition Assay
Assay type: biochemical
Conditions: colorimetric assay, 2,3-dimercapto-1-propanol tributyrate (DMPT) substrate, 37° C. for 20 minutes, absorbance at 405 nm; read-out: HSL hum IC50
Summary of the method: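 Colorimetric thioester hydrolysis: compounds in DMSO series mixed with DMPT (1.5 mM) in MOPS pH 7.2 with BSA, then baculovirus-expressed His6-tagged full-length human HSL added, 37° C, 20 min. DTNB plus detergents added, 15 min room temperature, absorbance at 405 nm.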

| SMILES | IC50 [nM] |
| --- | --- |
| CN(C(=O)N1CCC2(CC1)CCN(c1ccc(OC(F)(F)F)cc1)C2=O)c1ccc(Cl)c(Cl)c1 [Example 301, 1-Oxo-2-(4-trifluoromethoxy-phenyl)-2,8-diaza-spiro[4.5]decane-8-carboxylic acid (3,4-dichloro-phenyl)-methyl-amide] | 110 |
| CN(C(=O)N1CCC2(CC1)CCN(c1ccc(OC(F)(F)F)cc1)C2=O)c1cccc(Cl)c1 [Example 302, 1-Oxo-2-(4-trifluoromethoxy-phenyl)-2,8-diaza-spiro[4.5]decane-8-carboxylic acid (3-chloro-phenyl)-methyl-amide] | 40 |
| CCCCN(CC)C(=O)N1CCC2(CC1)CCN(c1ccc(OC(F)(F)F)cc1)C2=O [Example 303, 1-Oxo-2-(4-trifluoromethoxy-phenyl)-2,8-diaza-spiro[4.5]decane-8-carboxylic acid butyl-ethyl-amide] | 140 |
| CCN(C(=O)N1CCC2(CC1)CCN(c1ccc(OC(F)(F)F)cc1)C2=O)C(C)C [Example 304, 1-Oxo-2-(4-trifluoromethoxy-phenyl)-2,8-diaza-spiro[4.5]decane-8-carboxylic acid ethyl-isopropyl-amide] | 80 |
| CCN(C(=O)N1CCC2(CC1)CCN(c1ccc(OC(F)(F)F)cc1)C2=O)C1CCCCC1 [Example 305, 1-Oxo-2-(4-trifluoromethoxy-phenyl)-2,8-diaza-spiro[4.5]decane-8-carboxylic acid cyclohexyl-ethyl-amide] | 140 |
| CCN(Cc1ccccc1F)C(=O)N1CCC2(CC1)CCN(c1ccc(OC(F)(F)F)cc1)C2=O [Example 306, 1-Oxo-2-(4-trifluoromethoxy-phenyl)-2,8-diaza-spiro[4.5]decane-8-carboxylic acid ethyl-(2-fluoro-benzyl)-amide] | 160 |
| CCN(Cc1ccncc1)C(=O)N1CCC2(CC1)CCN(c1ccc(OC(F)(F)F)cc1)C2=O [Example 307, 1-Oxo-2-(4-trifluoromethoxy-phenyl)-2,8-diaza-spiro[4.5]decane-8-carboxylic acid ethyl-pyridin-4-ylmethyl-amide] | 350 |
| CCN(C(=O)N1CCC2(CC1)CCN(c1ccc(OC(F)(F)F)cc1)C2=O)c1cccc(C)c1 [Example 308, 1-Oxo-2-(4-trifluoromethoxy-phenyl)-2,8-diaza-spiro[4.5]decane-8-carboxylic acid ethyl-m-tolyl-amide] | 50 |
| CCN(C(=O)N1CCC2(CC1)CCN(c1ccc(OC(F)(F)F)cc1)C2=O)c1ccc(Cl)cc1 [Example 309, 1-Oxo-2-(4-trifluoromethoxy-phenyl)-2,8-diaza-spiro[4.5]decane-8-carboxylic acid (4-chloro-phenyl)-ethyl-amide] | 120 |
| CCN(Cc1ccccc1)C(=O)N1CCC2(CC1)CCN(c1ccc(OC(F)(F)F)cc1)C2=O [Example 310, 1-Oxo-2-(4-trifluoromethoxy-phenyl)-2,8-diaza-spiro[4.5]decane-8-carboxylic acid benzyl-ethyl-amide] | 170 |
| CCN(C(=O)N1CCC2(CC1)CCN(c1ccc(OC(F)(F)F)cc1)C2=O)c1ccc(OC(F)(F)F)cc1 [Example 311, 1-Oxo-2-(4-trifluoromethoxy-phenyl)-2,8-diaza-spiro[4.5]decane-8-carboxylic acid ethyl-(4-trifluoromethoxy-phenyl)-amide] | 60 |
| Cc1cccc(Cl)c1S(=O)(=O)N1CCC2(CCN(c3ccc(OC(F)(F)F)cc3)C2=O)CC1 [Example 312, 8-(2-Chloro-6-methyl-benzenesulfonyl)-2-(4-trifluoromethoxy-phenyl)-2,8-diaza-spiro[4.5]decan-1-one] | 80 |
| CC(C)CN(C)C(=O)N1CCC2(CC1)CCN(c1ccc(C3CC3)cc1)C2=O [Example 313, 2-(4-Cyclopropyl-phenyl)-1-oxo-2,8-diaza-spiro[4.5]decane-8-carboxylic acid isobutyl-methyl-amide] | 90 |
| CCCCN(C)C(=O)N1CCC2(CC1)CCN(c1ccc(C3CC3)cc1)C2=O [Example 314, 2-(4-Cyclopropyl-phenyl)-1-oxo-2,8-diaza-spiro[4.5]decane-8-carboxylic acid butyl-methyl-amide] | 130 |
